Test results: publication PMC11842024, “Reversible male contraception by targeted inhibition of serine/threonine kinase 33” (Science (New York, N.Y.), 2024)

Legend:
[1] = Metabolic stability assay in liver microsomes (MLM); type: in vitro ADME, mouse; details: 2.0 µM, 0.5 mg protein/mL, NADPH, data >60 min is an extrapolated estimate; for half-life at 2 µM: mouse, liver microsomes, read-out: Metabolic stability MLM, t1/2
Method: (§1) Metabolic stability assay in liver microsomes. The stabilities of CDD-2110, CDD-2211, CDD-2212, CDD-2807, and CDD-3348 in liver microsomes with/without Uridine Diphosphate Glucuronic Acid (UDP-GA, a cofactor of UDP-glucuronosyltransferases) were performed and half-life was calculated as previously reported (36). Briefly, each CDD compound (2.0 μM) was incubated in the mouse or human liver microsomes (0.5 mg protein/mL) at 37°C in 1× PBS fortified with NADPH (1.0 mM) and with/without UDP-GA (2.5 mM). Alamethicin (25 µg/mL) as a pore forming agent was used for the glucuronidation (Table S2A). The samples were collected at specific time-points 0, 30, and 60 min in duplicate. The reactions were terminated by adding equivalent volume of ice-cold methanol (CH3OH) and vortexed. After centrifugation at 15000 g for 10 min, 3.0 μL of the supernatant was analyzed by Thermo TSQ Quantis MS coupled with a Thermo Vanquish UHPLC (San Jose, CA) equipped with a Luna C18 column (1 mm × 50 mm, 1.6 µm, Phenomenex, Torrance, CA). The column temperature was maintained at 40°C. CDD-2807 was monitored under the selected reaction monitoring (SRM) mode coupled with a positive electrospray ionization (ESI) source. The SRM ion pairs were 447→321 for CDD-2807.

CLK2 [2] = target: T1, CLK2 (Homo sapiens, UniProt P49760); experiment: Z'-LYTE activity assay (ThermoFisher SelectScreen); type: biochemical; parameters: purchased SelectScreen Services (ThermoFisher); details: [ATP] = Kmapp
T1 sequence (P49760 whole entry): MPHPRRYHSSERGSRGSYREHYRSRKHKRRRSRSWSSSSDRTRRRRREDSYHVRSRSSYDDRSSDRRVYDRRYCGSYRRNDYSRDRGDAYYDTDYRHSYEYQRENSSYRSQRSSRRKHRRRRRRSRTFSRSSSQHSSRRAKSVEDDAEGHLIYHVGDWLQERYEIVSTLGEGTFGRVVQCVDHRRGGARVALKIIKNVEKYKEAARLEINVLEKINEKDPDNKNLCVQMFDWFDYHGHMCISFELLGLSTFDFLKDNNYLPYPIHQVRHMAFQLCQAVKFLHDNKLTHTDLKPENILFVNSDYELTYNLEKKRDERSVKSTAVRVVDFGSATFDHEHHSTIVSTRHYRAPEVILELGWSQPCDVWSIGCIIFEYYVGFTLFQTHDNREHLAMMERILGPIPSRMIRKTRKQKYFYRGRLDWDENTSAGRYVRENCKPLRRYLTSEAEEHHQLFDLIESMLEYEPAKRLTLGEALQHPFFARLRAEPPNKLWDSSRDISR
From the text: (§2) In vitro biochemical assays. Several small molecule assays were outsourced to SelectScreen Services (ThermoFisher) for STK33 and for off-target kinases (data sets are available on demand).
(§3) These assays are LanthaScreen (binding assay) and Z’-LYTE (activity assay). Dose-responses were done with at least 5 different concentrations in duplicates, and parameters were optimized by calculations described below and provided with standard errors. […]
(§4) Calculation of Ki values for kinase inhibitors from Z’-LYTE inhibition data. The Morrison equation with [ATP] = Kmapp for competitive inhibition (GraphPad Prism 7, San Diego, CA) was used to get Ki values. Since Kd and Ki values are defined the same way, in other words, Kd = [E] [I] / [EI] = Ki, Kd and Ki values can be compared. […]

CLK1 [3] = target: T2, CLK1 (Homo sapiens, UniProt P49759); experiment: Z'-LYTE activity assay (ThermoFisher SelectScreen); type: biochemical; parameters: purchased SelectScreen Services (ThermoFisher); details: [ATP] = Kmapp
T2 sequence (P49759 whole entry): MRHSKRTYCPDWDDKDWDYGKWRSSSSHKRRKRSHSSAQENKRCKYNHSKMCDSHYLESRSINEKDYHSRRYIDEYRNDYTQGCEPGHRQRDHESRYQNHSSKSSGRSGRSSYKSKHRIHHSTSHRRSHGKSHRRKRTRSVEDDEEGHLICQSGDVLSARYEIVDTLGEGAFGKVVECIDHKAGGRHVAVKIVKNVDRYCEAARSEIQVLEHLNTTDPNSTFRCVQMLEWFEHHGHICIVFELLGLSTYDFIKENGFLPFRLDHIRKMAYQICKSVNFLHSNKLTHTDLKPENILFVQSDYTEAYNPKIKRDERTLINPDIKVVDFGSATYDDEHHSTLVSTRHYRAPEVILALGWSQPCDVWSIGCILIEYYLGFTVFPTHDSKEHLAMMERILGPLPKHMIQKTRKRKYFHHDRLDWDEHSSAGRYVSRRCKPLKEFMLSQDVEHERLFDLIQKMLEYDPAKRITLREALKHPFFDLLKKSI
From the text: as §2, §3, §4

RET [4] = target: T3, RET (Homo sapiens, UniProt P07949); experiment: Z'-LYTE activity assay (ThermoFisher SelectScreen); type: biochemical; parameters: purchased SelectScreen Services (ThermoFisher); details: [ATP] = Kmapp
T3 sequence (P07949 29-1114): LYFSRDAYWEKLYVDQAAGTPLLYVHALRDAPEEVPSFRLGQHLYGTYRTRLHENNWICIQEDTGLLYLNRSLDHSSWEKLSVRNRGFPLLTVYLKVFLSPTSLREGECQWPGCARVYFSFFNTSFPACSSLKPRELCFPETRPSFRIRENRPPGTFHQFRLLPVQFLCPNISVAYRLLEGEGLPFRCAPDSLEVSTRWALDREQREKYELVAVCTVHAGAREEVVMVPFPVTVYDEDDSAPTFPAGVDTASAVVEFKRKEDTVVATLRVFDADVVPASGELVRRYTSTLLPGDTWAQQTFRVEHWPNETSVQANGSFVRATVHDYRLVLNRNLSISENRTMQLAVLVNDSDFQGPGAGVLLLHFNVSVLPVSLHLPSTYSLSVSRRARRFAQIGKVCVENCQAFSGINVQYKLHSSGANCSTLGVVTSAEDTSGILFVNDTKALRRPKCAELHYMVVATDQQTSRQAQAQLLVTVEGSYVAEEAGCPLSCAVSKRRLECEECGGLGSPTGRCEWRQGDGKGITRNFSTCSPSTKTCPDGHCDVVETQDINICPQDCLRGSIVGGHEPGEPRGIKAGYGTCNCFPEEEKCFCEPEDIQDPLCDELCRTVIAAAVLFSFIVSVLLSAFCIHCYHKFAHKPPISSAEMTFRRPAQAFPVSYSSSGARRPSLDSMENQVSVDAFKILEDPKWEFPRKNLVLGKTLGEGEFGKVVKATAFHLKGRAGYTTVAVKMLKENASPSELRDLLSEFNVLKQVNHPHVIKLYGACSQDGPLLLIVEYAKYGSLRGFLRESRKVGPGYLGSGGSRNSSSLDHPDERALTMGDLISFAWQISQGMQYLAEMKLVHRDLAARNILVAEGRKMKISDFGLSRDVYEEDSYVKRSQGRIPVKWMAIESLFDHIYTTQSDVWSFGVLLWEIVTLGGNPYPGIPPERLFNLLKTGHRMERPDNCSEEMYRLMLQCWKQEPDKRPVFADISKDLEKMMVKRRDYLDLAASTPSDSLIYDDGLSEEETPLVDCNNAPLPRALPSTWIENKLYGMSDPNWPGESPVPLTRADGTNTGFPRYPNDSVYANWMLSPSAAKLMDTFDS
From the text: as §2, §3, §4

CLK2 [5] = target: T1, CLK2; experiment: NanoBRET target engagement intracellular kinase assay; type: cell-based; parameters: host or cells: HEK293 (HEK293T cultured); details: for IC50: HEK293 cells, 2 hours incubation; for Fold NanoBRET IC50 CLK2 over STK33 (in parentheses): selectivity vs STK33
Method: (§5) NanoBRET Target Engagement intracellular kinase assay. HEK293T cells were cultured in […]
(§6) The cell line underwent authentication by short tandem repeat (STR) profiling at Cytogenetics and Cell Authentication Core (CCAC) at MD Anderson Cancer Center. NanoBRET Target Engagement intracellular kinase assay, K-10 assay (Cat. # N2641), K-9 assay (Cat. # N2631), transfection reagent FuGENE HD (Cat. # E2311), transfection carrier DNA (Cat. # E4881), NanoLuc-STK33 fusion vector (Cat. # NV2111), NanoLuc-RET fusion vector (Cat. # NV1951), NanoLuc-CLK1 fusion vector (Cat. # NV1131), NanoLuc-CLK2 fusion vector (Cat. # NV1141), and NanoLuc-CLK4 fusion vector (Cat. # NV1151) were purchased from Promega. The measurement of test compound engagement with cellular target protein was performed in a 384-well format according to manufacturer’s instructions. HEK293 cells were transiently transfected with NanoLuc (STK33, RET, CLK1, CLK2, and CLK4) fusion vectors. After 36 hours of transfection, cells were treated with a fixed concentration of tracer (recommended by Promega) followed by compounds (inhibitors) for 2 hours of incubation. To determine the test compound […]
(§7) 0.4 nM at a fixed tracer concentration. Staurosporine was measured in parallel as a positive control.
(§8) Freshly prepared NanoBRET Nano-Glo substrate plus extracellular NanoLuc inhibitor was then added to initiate the subsequent bioluminescence resonance energy transfer (BRET) measurements using a CLARIOstar Plus BMG LABTECH plate reader. Data analysis was done by measuring the ratio of acceptor emission to donor emission (BRET ratio) and normalized by subtracting no-tracer-control-background. IC50 values were obtained by nonlinear regression using a four-parameter equation in GraphPad Prism 7 (San Diego, CA).

CLK1 [6] = target: T2, CLK1; experiment: as above; type: cell-based; parameters: host or cells: HEK293 (HEK293T cultured); details: for IC50: HEK293 cells, 2 hours incubation; for Fold NanoBRET IC50 CLK1 over STK33 (in parentheses): selectivity vs STK33
Method: as §5, §6, §7, §8

STK33 [7] = target: T4, STK33 (Homo sapiens, UniProt Q9BYT3); experiment: as above; type: cell-based; parameters: host or cells: HEK293 (HEK293T cultured); details: for IC50: HEK293 cells, 2 hours incubation
T4 sequence (Q9BYT3 whole entry): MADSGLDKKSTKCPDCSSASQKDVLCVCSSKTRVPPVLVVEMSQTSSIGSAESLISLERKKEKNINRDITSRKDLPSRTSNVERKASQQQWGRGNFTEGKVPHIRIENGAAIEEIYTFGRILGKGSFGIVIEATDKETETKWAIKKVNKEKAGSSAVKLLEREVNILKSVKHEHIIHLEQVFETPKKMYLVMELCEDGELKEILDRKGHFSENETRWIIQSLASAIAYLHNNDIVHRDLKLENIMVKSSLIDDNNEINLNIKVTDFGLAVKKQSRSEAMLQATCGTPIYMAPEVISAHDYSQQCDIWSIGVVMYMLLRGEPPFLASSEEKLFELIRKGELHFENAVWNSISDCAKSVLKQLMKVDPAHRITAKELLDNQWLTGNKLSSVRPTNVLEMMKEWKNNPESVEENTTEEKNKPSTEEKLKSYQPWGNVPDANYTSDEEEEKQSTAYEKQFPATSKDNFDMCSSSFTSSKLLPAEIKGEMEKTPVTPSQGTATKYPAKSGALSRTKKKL
Method: as §5, §6, §7, §8

RET [8] = target: T3, RET; experiment: as above; type: cell-based; parameters: host or cells: HEK293 (HEK293T cultured); details: for IC50: HEK293 cells, 2 hours incubation; for Fold NanoBRET IC50 RET over STK33 (in parentheses): selectivity vs STK33
Method: as §5, §6, §7, §8

CLK4 [9] = target: T5, CLK4 (Homo sapiens, UniProt Q9HAZ1); experiment: as above; type: cell-based; parameters: host or cells: HEK293 (HEK293T cultured); details: for IC50: HEK293 cells, 2 hours incubation; for Fold NanoBRET IC50 CLK4 over STK33 (in parentheses): selectivity vs STK33
T5 sequence (Q9HAZ1 whole entry): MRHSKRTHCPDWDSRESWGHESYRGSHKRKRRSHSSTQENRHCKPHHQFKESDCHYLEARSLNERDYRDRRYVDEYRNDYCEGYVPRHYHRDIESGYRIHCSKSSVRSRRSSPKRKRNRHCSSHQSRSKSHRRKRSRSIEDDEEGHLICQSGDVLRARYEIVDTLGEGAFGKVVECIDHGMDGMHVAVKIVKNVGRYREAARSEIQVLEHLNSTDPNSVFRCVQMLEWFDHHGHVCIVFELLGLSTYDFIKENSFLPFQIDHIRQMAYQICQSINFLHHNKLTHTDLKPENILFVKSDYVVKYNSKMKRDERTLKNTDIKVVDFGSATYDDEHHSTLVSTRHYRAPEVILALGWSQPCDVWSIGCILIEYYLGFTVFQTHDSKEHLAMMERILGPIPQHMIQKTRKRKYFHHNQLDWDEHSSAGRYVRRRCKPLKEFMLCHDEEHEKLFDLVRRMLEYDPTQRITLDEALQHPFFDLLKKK
Method: as §5, §6, §7, §8

STK33 [10] = target: T4, STK33; experiment: LanthaScreen binding assay (ThermoFisher SelectScreen); parameters: purchased SelectScreen Services (ThermoFisher)
From the text: as §2
(§9) These assays are LanthaScreen (binding assay) and Z’-LYTE (activity assay). Dose-responses were done with at least 5 different concentrations in duplicates, and parameters were optimized by calculations described below and provided with standard errors.
(§10) Calculation of Kd values for kinase inhibitors that bind to the ATP pocket of a kinase from LanthaScreen binding data. DynaFit (71) was used to fit complex equilibria where a tracer is displaced by a dilution series of a kinase inhibitor. This method relies on the concentration of inhibitor, as well as the concentration of kinase and tracer, and Kd of the tracer. The latter three parameters are tabulated by ThermoFisher for each kinase in the LanthaScreen assay panel. […]
Since Kd and Ki values are defined the same way, in other words, Kd = [E] [I] / [EI] = Ki, Kd and Ki values can be compared. […]

[11] = Metabolic stability assay in liver microsomes (HLM); type: in vitro ADME, human; details: 2.0 µM, 0.5 mg protein/mL, NADPH, data >60 min is an extrapolated estimate; for half-life at 2 µM: human, liver microsomes, read-out: Metabolic stability HLM, t1/2
Method: as §1

CLK4 [12] = target: T5, CLK4; experiment: LanthaScreen binding assay (ThermoFisher SelectScreen); parameters: purchased SelectScreen Services (ThermoFisher)
From the text: as §2, §9, §10

CNC(=O)C1CCN(C2CCN(C(=O)c3ccc4[nH]nc(C#Cc5ccccc5-c5ccccc5)c4c3)C2)CC1 (centres unmarked) [CDD-2110]
half-life at 2 µM [1]: 25 min
Ki (CLK2 [2]): 27 ± 6.6 nM
Ki (CLK1 [3]): 234 ± 18 nM
Ki (RET [4]): 3.1 ± 0.3 nM
IC50 (CLK2 [5]): 917 nM
Fold NanoBRET IC50 CLK2 over STK33 (in parentheses) (CLK2 [5]): 24 X
IC50 (CLK1 [6]): 1210 nM
Fold NanoBRET IC50 CLK1 over STK33 (in parentheses) (CLK1 [6]): 32 X
selectivity toward STK33 compared to CLK1, CLK2, CLK4, and RET (STK33 [7]): > 10 fold
IC50 (STK33 [7]): 38 nM
fold more potent than published STK33 inhibitors in cellular assays (STK33 [7]; vs compound 1, ML281, BRD8899): 20- to 310 fold
IC50 (RET [8]): 746 nM
Fold NanoBRET IC50 RET over STK33 (in parentheses) (RET [8]): 20 X
IC50 (CLK4 [9]): 544 nM
Fold NanoBRET IC50 CLK4 over STK33 (in parentheses) (CLK4 [9]): 14 X
Kd (STK33 [10]): 0.1 nM
fold more potent than published STK33 inhibitors in biochemical assays (STK33 [10]; vs compound 1, ML281, BRD8899): 12- to 400 fold
half-life at 2 µM [11]: 10 min
Kd (CLK4 [12]): 9.6 ± 1.2 nM

CN(C)[C@@H]1CCN(C(=O)c2ccc3[nH]nc(C#Cc4ccccc4-c4ccccc4)c3c2)C1 [CDD-2211]
half-life at 2 µM [1]: 7 min
Ki (CLK2 [2]): 5.4 ± 0.4 nM
Ki (CLK1 [3]): 38.8 ± 5.5 nM
Ki (RET [4]): 0.47 ± 0.05 nM
IC50 (CLK2 [5]): 48 nM
Fold NanoBRET IC50 CLK2 over STK33 (in parentheses) (CLK2 [5]): 10 X
IC50 (CLK1 [6]): 115 nM
Fold NanoBRET IC50 CLK1 over STK33 (in parentheses) (CLK1 [6]): 23 X
selectivity toward STK33 compared to CLK1, CLK2, CLK4, and RET (STK33 [7]): > 10 fold
IC50 (STK33 [7]): 5 nM
IC50 (RET [8]): 78 nM
Fold NanoBRET IC50 RET over STK33 (in parentheses) (RET [8]): 16 X
IC50 (CLK4 [9]): 187 nM
Fold NanoBRET IC50 CLK4 over STK33 (in parentheses) (CLK4 [9]): 37 X
Kd (STK33 [10]): 0.018 nM
half-life at 2 µM [11]: 10 min
Kd (CLK4 [12]): 2.5 ± 0.2 nM

CN(C)[C@H]1CCN(C(=O)c2ccc3[nH]nc(C#Cc4ccccc4-c4ccccc4)c3c2)C1 [CDD-2212]
half-life at 2 µM [1]: 9 min
Ki (CLK2 [2]): 54.8 ± 3 nM
Ki (CLK1 [3]): 507 ± 36 nM
Ki (RET [4]): 2 ± 1.4 nM
IC50 (CLK2 [5]): 1550 nM
Fold NanoBRET IC50 CLK2 over STK33 (in parentheses) (CLK2 [5]): 1.5 X
IC50 (CLK1 [6]): 3230 nM
Fold NanoBRET IC50 CLK1 over STK33 (in parentheses) (CLK1 [6]): 3 X
IC50 (STK33 [7]): 999 nM
IC50 (RET [8]): 1090 nM
Fold NanoBRET IC50 RET over STK33 (in parentheses) (RET [8]): 1.1 X
IC50 (CLK4 [9]): 5880 nM
Fold NanoBRET IC50 CLK4 over STK33 (in parentheses) (CLK4 [9]): 6 X
Kd (STK33 [10]): 1.9 nM
half-life at 2 µM [11]: 8 min
Kd (CLK4 [12]): 21.5 ± 1 nM

NC1CCN(C(=O)c2ccc3[nH]nc(C#Cc4ccccc4-c4ccccc4)c3c2)C1 (centres unmarked) [Compound S1]
Metabolic stability MLM, t1/2 [1]: 42 min
IC50 (STK33 [7]): 46 nM
Metabolic stability HLM, t1/2 [11]: 277 min

O=C(c1ccc2[nH]nc(C#Cc3ccccc3-c3ccccc3)c2c1)N1CCC(O)C1 (centres unmarked) [Compound S2]
IC50 (STK33 [7]): 647 nM

O=C(c1ccc2[nH]nc(C#Cc3ccccc3-c3ccccc3)c2c1)N1CCC2(CCCCN2)C1 (centres unmarked) [Compound S3]
IC50 (STK33 [7]): 52 nM

O=C(c1ccc2[nH]nc(C#Cc3ccccc3-c3ccccc3)c2c1)N1CCC2(CCCNC2)C1 (centres unmarked) [Compound S4]
IC50 (STK33 [7]): 517 nM

O=C(c1ccc2[nH]nc(C#Cc3ccccc3-c3ccccc3)c2c1)N1CCC2(CCNCC2)C1 [Compound S5]
IC50 (STK33 [7]): 1290 nM

O=C(c1ccc2[nH]nc(C#Cc3ccccc3-c3ccccc3)c2c1)N1CC2(CCCCN2)C1 [Compound S6]
IC50 (STK33 [7]): 236 nM

O=C(c1ccc2[nH]nc(C#Cc3ccccc3-c3ccccc3)c2c1)N1CC2(CCNCC2)C1 [Compound S7]
Metabolic stability MLM, t1/2 [1]: 46 min
IC50 (STK33 [7]): 168 nM
Metabolic stability HLM, t1/2 [11]: 235 min

CN(C)C1CCN(C(=O)c2ccc3[nH]nc(C#Cc4cccc(-c5ccccc5)c4)c3c2)C1 (centres unmarked) [Compound S9]
IC50 (STK33 [7]): 289 nM
Kd (STK33 [10]): 9.9 ± 2.3 nM

CN(C)C1CCN(C(=O)c2ccc3[nH]nc(C#Cc4ccc(-c5ccccc5)cc4)c3c2)C1 (centres unmarked) [Compound S10]
IC50 (STK33 [7]): 8710 nM
Kd (STK33 [10]): 17.7 ± 0.7 nM

ML281 [reference compound]
Ki (CLK2 [2]): > 1000 nM
Ki (CLK1 [3]): > 1000 nM
Ki (RET [4]): > 1000 nM
Kd (CLK4 [12]): > 1000 nM
